{"source": "ChEMBL document CHEMBL1201861", "about": "“Genomics of Drug Sensitity in Cancer screening data, Wellcome Trust Sanger Institute”", "assay_in_all_cases": "cells", "assay_type_in_all_cases": "functional, cell-based, Homo sapiens", "key": {"BHT-101": {"tested_on": "BHT-101", "settings": "Homo sapiens, BHT-101", "description": "SANGER: Inhibition of human BHT-101 cell growth in a cell viability assay."}, "LU-139": {"tested_on": "LU-139", "settings": "Homo sapiens, LU-139", "description": "SANGER: Inhibition of human LU-139 cell growth in a cell viability assay."}, "C8166": {"tested_on": "C8166", "settings": "Homo sapiens, C8166", "description": "SANGER: Inhibition of human C8166 cell growth in a cell viability assay."}, "KYSE-510": {"tested_on": "KYSE-510", "settings": "Homo sapiens, KYSE-510", "description": "SANGER: Inhibition of human KYSE-510 cell growth in a cell viability assay."}, "A388": {"tested_on": "A388", "settings": "Homo sapiens, A388", "description": "SANGER: Inhibition of human A388 cell growth in a cell viability assay."}, "HCC1937": {"tested_on": "HCC1937", "settings": "Homo sapiens, HCC1937", "description": "SANGER: Inhibition of human HCC1937 cell growth in a cell viability assay."}, "CAL-12T": {"tested_on": "CAL-12T", "settings": "Homo sapiens, CAL-12T", "description": "SANGER: Inhibition of human CAL-12T cell growth in a cell viability assay."}, "D-336MG": {"tested_on": "D-336MG", "settings": "Homo sapiens, D-336MG", "description": "SANGER: Inhibition of human D-336MG cell growth in a cell viability assay."}, "SNU-C2B": {"tested_on": "SNU-C2B", "settings": "Homo sapiens, SNU-C2B", "description": "SANGER: Inhibition of human SNU-C2B cell growth in a cell viability assay."}, "KLE": {"tested_on": "KLE", "settings": "Homo sapiens, KLE", "description": "SANGER: Inhibition of human KLE cell growth in a cell viability assay."}, "VMRC-RCZ": {"tested_on": "VMRC-RCZ", "settings": "Homo sapiens, VMRC-RCZ", "description": "SANGER: Inhibition of human VMRC-RCZ cell growth in a cell viability assay."}, "LXF-289 cell line": {"tested_on": "LXF-289 cell line", "settings": "Homo sapiens, LXF-289", "description": "SANGER: Inhibition of human LXF-289 cell growth in a cell viability assay."}, "SW900": {"tested_on": "SW900", "settings": "Homo sapiens, SW900", "description": "SANGER: Inhibition of human SW900 cell growth in a cell viability assay."}, "GR-ST": {"tested_on": "GR-ST", "settings": "Homo sapiens, GR-ST", "description": "SANGER: Inhibition of human GR-ST cell growth in a cell viability assay."}, "K562": {"tested_on": "K562", "settings": "Homo sapiens, K562", "description": "SANGER: Inhibition of human K-562 cell growth in a cell viability assay."}}}
{"smiles": "CCc1cncnc1N1CCN(Cc2nc3cc(C(F)(F)F)ccc3[nH]2)CC1", "values": [{"measurement": "IC50", "setting": "BHT-101", "result": 820, "unit": "nM"}]}
{"smiles": "COc1cc2ncnc(Nc3ccc(F)c(Cl)c3)c2cc1OCCCN1CCOCC1", "note": "[GEFITINIB]", "values": [{"measurement": "IC50", "setting": "LU-139", "result": "> 500", "unit": "nM"}, {"measurement": "IC50", "setting": "C8166", "result": "> 500", "unit": "nM"}, {"measurement": "IC50", "setting": "KYSE-510", "result": "> 500", "unit": "nM"}, {"measurement": "IC50", "setting": "A388", "result": "> 500", "unit": "nM"}, {"measurement": "IC50", "setting": "HCC1937", "result": "> 500", "unit": "nM"}, {"measurement": "IC50", "setting": "CAL-12T", "result": "> 500", "unit": "nM"}, {"measurement": "IC50", "setting": "D-336MG", "result": "> 500", "unit": "nM"}, {"measurement": "IC50", "setting": "SNU-C2B", "result": "> 500", "unit": "nM"}, {"measurement": "IC50", "setting": "KLE", "result": "> 500", "unit": "nM"}, {"measurement": "IC50", "setting": "VMRC-RCZ", "result": "> 500", "unit": "nM"}, {"measurement": "IC50", "setting": "LXF-289 cell line", "result": "> 500", "unit": "nM"}, {"measurement": "IC50", "setting": "SW900", "result": "> 500", "unit": "nM"}, {"measurement": "IC50", "setting": "GR-ST", "result": "> 500", "unit": "nM"}, {"measurement": "IC50", "setting": "K562", "result": "> 500", "unit": "nM"}]}
